From patent US20230091047A1 (priority 2019, published 2023)
Where two headings read alike, the source gives them in different places.

Tests used:
in vitro = assay type: cell-based; conditions: human, HepG2 or HepG2.117 cells, mean value
Method in brief: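 Luminescent ATP quantitation served as the viability endpoint following a 3- or 4-day incubation with test compounds.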

[1] = test system: HBV (HepG2.117 cell line, inducibly HBV producing); assay: Anti-HBV activity: intracellular HBV DNA by real-time PCR in HepG2.117 cells after 3 days of treatment; assay type: cell-based, hepatitis B virus
Method in brief: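 First, HBV replication is induced in HepG2.117 cells by doxycycline absence. Next, serially diluted compound is added for 3 days. Finally, intracellular HBV DNA is quantified by HBV-specific real-time PCR.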

[2] = Hepatitis B virus, HepG2.117, 72 h, HepG2.117 cells, 3 days of treatment, intracellular HBV DNA by real-time PCR; mean value; read-out: EC50 (μM, mean value)
[3] = ATPlite, 3-days incubation (not marked with *)
[4] = Hepatitis B virus, HepG2.117, 72 h, HepG2.117 cells, intracellular HBV DNA by real-time PCR, 3 days of treatment, mean value; read-out: EC50 (μM, mean value)
[5] = 3-days incubation (unmarked values), ATPlite

SMILES | EC50 [1, 2] [µM] | CC50 at 3 days (in vitro; [3]) [µM] | EC50 [1, 4] [µM] | CC50 at 3 days (in vitro; [5]) [µM] | other results
COc1ccc(CNc2nc3c(c(=O)n2-c2cccc(C(F)(F)F)c2)CCN(C(=O)c2ccc(Cl)c(Cl)c2)C3)cc1 [Compound C7, 7-(3,4-dichlorobenzoyl)-2-{[(4-methoxyphenyl)methyl]amino}-3-[3-(trifluoromethyl)phenyl]-5,6,7,8-tetrahydropyrido[3,4-d]pyrimidin-4(3H)-one] | 2.03 |  |  |  | CC50 at 4 days (in vitro; 4-days incubation (values marked with *), ATPlite): > 50 µM
CNC(=O)c1ccc(-n2c(Nc3cn(C)nn3)nc3c(c2=O)C[C@@H](C)N(C(=O)c2ccc(Cl)c(Cl)c2)C3)cc1 [Compound C421] |  | > 50 | > 8.1 |  | 
COc1ccc(CNc2nc3c(c(=O)[nH]2)CCN(C(=O)c2ccc(Br)cc2)C3)cc1 [Compound C116, 7-(4-bromobenzoyl)-2-{[(4-methoxyphenyl)methyl]amino}-5,6,7,8-tetrahydropyrido[3,4-d]pyrimidin-4(3H)-one] | 21.6 |  |  | 27.4 | 
CC(C)Nc1nc2c(c(=O)n1-c1ccc(-c3ncc(F)cc3F)cc1)CCN(C(=O)c1ccc(Cl)c(Cl)c1)C2 [Compound C171, 7-(3,4-dichlorobenzoyl)-3-[4-(3,5-difluoropyridin-2-yl)phenyl]-2-[(propan-2-yl)amino]-5,6,7,8-tetrahydropyrido[3,4-d]pyrimidin-4(3H)-one] | 3.95 |  |  | 4.6 | 
COc1ccc(CNc2nc3c(c(=O)n2-c2ccc(C(N)=O)cc2)CCN(C(=O)c2ccc(Cl)c(Cl)c2)C3)cc1 [Compound C149, 4-[7-(3,4-dichlorobenzoyl)-2-{[(4-methoxyphenyl)methyl]amino}-4-oxo-5,6,7,8-tetrahydropyrido[3,4-d]pyrimidin-3(4H)-yl]benzamide] | 1.5 |  |  | 23.2 | 
COc1ccc(Cn2c(N)nc3c(c2=O)CCN(C(=O)c2ccc(Cl)c(Cl)c2)C3)cc1 [Compound C76, 2-amino-7-(3,4-dichlorobenzoyl)-3-[(4-methoxyphenyl)methyl]-5,6,7,8-tetrahydropyrido[3,4-d]pyrimidin-4(3H)-one] | 9.63 |  |  | 7.1 | 
CNC(=O)OCC[C@@H](Nc1nc2c(c(=O)n1-c1ccc(C(=O)NC)cc1)C[C@@H](C)N(C(=O)c1ccc(Cl)c(Cl)c1)C2)C1CC1 (single isomer, unassigned) [Compound C256, (3*R)-3-cyclopropyl-3-({(6R)-7-(3,4-dichlorobenzoyl)-6-methyl-3-[4-(methylcarbamoyl)phenyl]-4-oxo-3,4,5,6,7,8-hexahydropyrido[3,4-d]pyrimidin-2-yl}amino)propyl methylcarbamate] | 3.26 |  |  | > 50 | 
CNC(=O)c1cc(-n2c(NC(C)C)nc3c(c2=O)C[C@@H](C)N(C(=O)c2ccc(Cl)c(C(F)(F)F)c2)C3)nn1C [Compound C668] |  | > 50 | 0.01 |  | 
CNC(=O)c1ccc(-n2c(N[C@@H](c3ccccc3)C3CC3)nc3c(c2=O)C[C@@H](C)N(C(=O)c2ccc(Cl)c(Cl)c2)C3)cc1 (single isomer, unassigned) [Compound C342, 4-[(6R)-2-{[(*R)-cycopropyl(phenyl)methyl]amino}-7-(3,4-dichlorobenzoyl)-6-methyl-4-oxo-5,6,7,8-tetrahydropyrido[3,4-d]pyrimidin-3(4H)-yl]-N-methylbenzamide] | 0.37 |  |  | 16 | 
CC(C)Nc1nc2c(c(=O)n1-c1ccc(-c3ncco3)cc1)CCN(C(=O)c1ccc(Cl)c(Cl)c1)C2 [Compound C162, 7-(3,4-dichlorobenzoyl)-3-[4-(1,3-oxazol-2-yl)phenyl]-2-[(propan-2-yl)amino]-5,6,7,8-tetrahydropyrido[3,4-d]pyrimidin-4(3H)-one] | 0.47 |  |  | > 50 | 
CNC(=O)c1ccc(-n2c(N[C@@H](C)c3ccc4[nH]ncc4c3)nc3c(c2=O)C[C@@H](C)N(C(=O)c2ccc(Cl)c(Cl)c2)C3)cc1 (single isomer, unassigned) [Compound C529b] |  | > 50 | 0.72 |  | 
CNC(=O)c1ccc(-n2c(NCc3nncn3-c3ccccc3)nc3c(c2=O)C[C@@H](C)N(C(=O)c2ccc(Cl)c(Cl)c2)C3)cc1 [Compound C542] |  | > 50 | 12.9 |  | 
CNC(=O)c1ccc(-n2c(NCc3cnn(C)n3)nc3c(c2=O)C[C@@H](C)N(C(=O)c2ccc(Cl)c(Cl)c2)C3)cc1 [Compound C560] |  | > 50 | 2.59 |  | 
Cc1cc(-n2cccn2)ccc1-n1c(NC(C)C)nc2c(c1=O)C[C@@H](C)N(C(=O)c1ccc(Cl)c(Cl)c1)C2 [Compound C308, (6R)-7-(3,4-dichlorobenzoyl)-6-methyl-3-[2-methyl-4-(1H-pyrazol-1-yl)phenyl]-2-[(propan-2-yl)amino]-5,6,7,8-tetrahydropyrido[3,4-d]pyrimidin-4(3H)-one] | 0.11 |  |  | > 50 | 
CNC(=O)c1ccc(-n2c(N[C@@H](C)c3ccc4[nH]ccc4c3)nc3c(c2=O)C[C@@H](C)N(C(=O)c2ccc(Cl)c(Cl)c2)C3)cc1 (single isomer, unassigned) [Compound C449b] |  | 46.4 | 0.2 |  | 
CNC(=O)c1ccc(-n2c(N[C@H](C)c3ccc4[nH]ncc4c3)nc3c(c2=O)C[C@@H](C)N(C(=O)c2ccc(Cl)c(Cl)c2)C3)cc1 (single isomer, unassigned) [Compound C529a] |  | > 50 | 0.16 |  | 
CNC(=O)c1ccc(-n2c(N[C@H]3C[C@H]4CC[C@]3(C)C4(C)C)nc3c(c2=O)C[C@@H](C)N(C(=O)c2ccc(Cl)c(Cl)c2)C3)cc1 [Compound C621] |  | 5.99 | > 2.5 |  | 

SMILES | EC50 [1, 2] [µM] | CC50 at 3 days (in vitro; [3]) [µM] | EC50 [1, 4] [µM] | CC50 at 3 days (in vitro; [5]) [µM] | other results
CNc1noc2cc(-n3c(NC(C)C)nc4c(c3=O)C[C@@H](C)N(C(=O)c3ccc(Cl)c(Cl)c3)C4)ccc12 [Compound C305, (6R)-7-(3,4-dichlorobenzoyl)-6-methyl-3-[3-(methylamino)-1,2-benzoxazol-6-yl]-2-[(propan-2-yl)amino]-5,6,7,8-tetrahydropyrido[3,4-d]pyrimidin-4(3H)-one] | 0.07 |  |  | > 50 | 
CC(C)Nc1nc2c(c(=O)n1-c1ccc(S(C)(=O)=O)c(C(F)F)c1)C[C@@H](C)N(C(=O)c1ccc(Cl)c(Cl)c1)C2 [Compound C385] |  | > 50 | 0.86 |  | 
CNC(=O)c1ccc(-n2c(N(C)Cc3cccc(OC)c3)nc3c(c2=O)C[C@@H](C)N(C(=O)c2ccc(Cl)c(Cl)c2)C3)cc1 [Compound C457] |  | 38.1 | 0.1 |  | 
CC(C)NC(=O)c1cnc(-n2c(NC(C)C)nc3c(c2=O)C[C@@H](C)N(C(=O)c2ccc(Cl)c(C(F)(F)F)c2)C3)cn1 [Compound C694] | 0.05 |  |  |  | CC50 at 3 days (in vitro; 3-days incubation (unmarked values), ATPlite viability): > 50 µM
Cc1cc(-c2ncc[nH]2)ccc1-n1c(NC(C)C)nc2c(c1=O)C[C@@H](C)N(C(=O)c1ccc(Cl)c(Cl)c1)C2 [Compound C399] |  | 25.2 | 0.24 |  | 
CCOC(=O)c1ccc(-n2c(NC(C)C)nc3c(c2=O)C[C@@H](C)N(C(=O)c2ccc(Cl)c(Cl)c2)C3)cc1 [Compound C153, ethyl 4-[(6R)-7-(3,4-dichlorobenzoyl)-6-methyl-4-oxo-2-[(propan-2-yl)amino]-5,6,7,8-tetrahydropyrido[3,4-d]pyrimidin-3(4H)-yl]benzoate] | 0.75 |  |  | > 50 | 
CNC(=O)c1ccc(-n2c(NC(C)C)nc3c(c2=O)C[C@@H](C)N(C(=O)c2ccc(Br)c(F)c2OC)C3)cc1 [Compound C512] |  | > 50 | 1.11 |  | 
CNC(=O)c1ccc(-n2c(NC(C)C)nc3c(c2=O)C[C@@H](C)N(C(=O)c2cc4c(Br)cccc4[nH]2)C3)cc1 [Compound C569] |  | 21.4 | 0.01 |  | 
CCOC(=O)[C@H]1CC[C@@H](n2c(NC(C)C)nc3c(c2=O)C[C@@H](C)N(C(=O)c2ccc(Cl)c(Cl)c2)C3)CC1 [Compound C273, ethyl cis-4-[(6R)-7-(3,4-dichlorobenzoyl)-6-methyl-4-oxo-2-[(propan-2-yl)amino]-5,6,7,8-tetrahydropyrido[3,4-d]pyrimidin-3(4H)-yl]cyclohexane-1-carboxylate] | 0.31 |  |  | 33.4 | 
CNC(=O)c1ccc(-n2c(N[C@H]3CCOc4ccccc43)nc3c(c2=O)C[C@@H](C)N(C(=O)c2ccc(Cl)c(Cl)c2)C3)cc1 (single isomer, unassigned) [Compound C526b] |  | 16.3 | 5.42 |  | 
CNC(=O)c1ccc(-n2c(N[C@@H](C)c3ccc(C(F)(F)F)cc3)nc3c(c2=O)C[C@@H](C)N(C(=O)c2ccc(Cl)c(Cl)c2)C3)cn1 [Compound C533] |  | > 50 | 0.11 |  | 
CNC(=O)c1cc(Cl)c(-n2c(NC(C)C)nc3c(c2=O)C[C@@H](C)N(C(=O)c2ccc(Cl)c(Cl)c2)C3)c(Cl)c1 [Compound C376] | 0.09 |  |  | > 50 | 
CNC(=O)c1ccc(-n2c(NC3CCOC3)nc3c(c2=O)C[C@@H](C)N(C(=O)c2ccc(Cl)c(Cl)c2)C3)cc1 (stereo partly drawn) [Compound C559] |  | > 50 | 0.6 |  | 
CNC(=O)c1ccc(-n2c(NC(C)C)nc3c(c2=O)C[C@@H](C)N(C(=O)c2ccc(C)c(F)c2)C3)cc1 [Compound C515] |  | > 50 | 1.14 |  | 
CNC(=O)c1ccc(-n2c(NC(C)C)nc3c(c2=O)C[C@@H](C)N(C(=O)c2ccc4nnn(C)c4c2)C3)cc1 [Compound C474] |  | > 50 | > 25 |  | 
CNC(=O)c1ccc(-n2c(NC(C)C)nc3c(c2=O)C[C@@H](C)N(C(=O)c2cc4ccncc4s2)C3)cc1 [Compound C503] |  | > 50 | 6.32 |  | 
